Key:
duck salad = assay: Test B flood test duck salad; assay type: in vivo, Heteranthera limosa; conditions: for Plant response rating, Ducksalad (0 to 10 scale, 0 is no effect, 10 is complete control): Rate 62 g/ha, Pre-emergence; for Plant response rating, Ducksalad (0 to 10 scale, 0 is no effect, 10 is complete control) / Ducksalad plant response rating (0 to 10 scale, 0 is no effect, 10 is complete control): flood test species, visual evaluation after twelve to sixteen days; for Ducksalad plant response rating (0 to 10 scale, 0 is no effect, 10 is complete control): Rate 125 g/ha, under heading Pre-emergence
Method in brief: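 Each value is a visual injury score relative to controls, with 10 meaning complete control and 0 no effect. Evaluation took place twelve to sixteen days after the 2-leaf-stage plants were treated and kept in the greenhouse.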

rape = assay: Test B pre/postemergence rape; assay type: in vivo, Brassica napus
Method in brief: (§1)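 Test chemicals in a non-phytotoxic solvent mixture with surfactant were sprayed preemergence onto planted seeds and postemergence onto plants 2 to 18 cm tall (1- to 4-leaf stage). After twelve to sixteen days in a greenhouse, injury was visually rated against untreated controls from 0 (no effect) to 10 (complete control).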

morningglory = assay: Test B pre/postemergence morningglory; assay type: in vivo, Ipomoea hederacea
Method in brief: as §1

wheat = assay: Test B pre/postemergence wheat; assay type: in vivo, Triticum aestivum
Method in brief: as §1

[1] = Rate 250 g/ha, Pre-emergence (flood test species), scale 0 to 10, 0 is no effect, 10 is complete control
[2] = Rate 500 g/ha, Pre-emergence section of Table B, 0 to 10 scale (0 no effect, 10 complete control)
[3] = Postemergence, Rate 62 g/ha, scale 0 to 10, 0 is no effect, 10 is complete control
[4] = Postemergence, Rate 125 g/ha, scale of 0 to 10 where 0 is no effect and 10 is complete control
[5] = Preemergence, Rate 62 g/ha, scale of 0 to 10 where 0 is no effect and 10 is complete control
[6] = Preemergence, Rate 125 g/ha, scale of 0 to 10 where 0 is no effect and 10 is complete control
[7] = Preemergence, Rate 250 g/ha, scale 0 to 10 (0 no effect, 10 complete control)
[8] = Preemergence, Rate 500 g/ha, scale of 0 to 10 where 0 is no effect and 10 is complete control
[9] = Rate 500 g/ha, Postemergence, scale 0 to 10, 0 is no effect, 10 is complete control
[10] = Postemergence, Rate 250 g/ha, scale of 0 to 10, 0 is no effect, 10 is complete control

Row | SMILES | Plant response rating, Ducksalad (0 to 10 scale, 0 is no effect, 10 is complete control) (duck salad) | Ducksalad plant response rating (0 to 10 scale, 0 is no effect, 10 is complete control) (duck salad) | Ducksalad plant response rating (duck salad; [1]) | Ducksalad plant response rating (duck salad; [2]) | Plant response rating, Rape (rape; [3]) | Rape plant response rating (rape; [4]) | Rape plant response rating (rape; [5]) | Rape plant response rating (rape; [6]) | Plant response rating, Rape (rape; [7]) | Plant response rating, Rape (rape; [8]) | Rape plant response rating (rape; [9]) | Plant response rating, Morningglory (morningglory; [3]) | Morningglory plant response rating (morningglory; [4]) | Morningglory plant response rating (morningglory; [10]) | Morningglory plant response rating (morningglory; [5]) | Morningglory plant response rating (morningglory; [6]) | Plant response rating, Morningglory (morningglory; [7]) | Plant response rating, Morningglory (morningglory; [8]) | Morningglory plant response rating (morningglory; [9]) | Plant response rating, Wheat (wheat; [3]) | other results
1 | CC(C)N(C(=O)n1oc(=O)n(CC2CCCCO2)c1=O)c1ccccc1 (stereo not drawn) [Compound 659] | 0 | 0 | 0 | 0 | 0 | 0 | 0 | 0 | 2 | 10 | 1 | 4 | 10 | 10 | 0 | 0 | 0 | 6 | 10 | 0 | Wheat plant response rating (wheat; [4]): 0; Wheat plant response rating (wheat; [5]): 0; Wheat plant response rating (wheat; [6]): 0; Plant response rating, Wheat (wheat; [7]): 2; Plant response rating, Wheat (wheat; [8]): 7; Wheat plant response rating (wheat; [9]): 5
2 | CC(C)N(C(=O)n1oc(=O)n(CC2CCCCO2)c1=O)c1ccc(Cl)cc1 (stereo not drawn) [Compound 660] | 0 | 0 | 0 | 0 | 0 | 0 | 0 | 0 | 3 | 4 | 0 | 1 | 4 | 6 | 0 | 0 | 0 | 0 | 7 | 0 | Wheat plant response rating (wheat; [4]): 0; Wheat plant response rating (wheat; [5]): 0; Wheat plant response rating (wheat; [6]): 0; Plant response rating, Wheat (wheat; [7]): 0; Plant response rating, Wheat (wheat; [8]): 0; Wheat plant response rating (wheat; [9]): 0
3 | CC[C@H](C)n1c(=O)on(C(=O)N(c2ccc(Cl)cc2)C(C)C)c1=O [Compound 664] | 0 | 0 | 0 | 0 | 0 | 0 | 0 | 1 | 1 | 6 | 3 | 0 | 2 | 9 | 0 | 0 | 0 | 4 | 10 | 0 | Wheat plant response rating (wheat; [4]): 0; Wheat plant response rating (wheat; [5]): 0; Wheat plant response rating (wheat; [6]): 0; Plant response rating, Wheat (wheat; [7]): 0; Plant response rating, Wheat (wheat; [8]): 5; Wheat plant response rating (wheat; [9]): 2

From US6737383B1, “Herbicidal oxadiazolidines” (priority 1999, dated 2004)
